The text below walks through data of PubChem BioAssay AID330 (DTP/NCI, 2004).

This assay concerns P388 leukemia ip, CD2F1 mice, survival T/C. Nature of the assay: NCI In Vivo Anticancer Drug Screen. Data for tumor model P388 Leukemia (intraperitoneal) in CD2F1 (CDF1) mice. Particulars: endpoint: median survival time, higher = longer survival. The method in brief:
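Mice carrying the transplanted tumor received test compound or vehicle. Survival was recorded in each group, and the value is the treated-group measurement divided by that of the vehicle-treated control group.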

Setting [1] is: dose: 60.0 mg/kg/injection, schedule: Q01DX005 (ip), vehicle: saline with Tween-80.
The mark [2] stands for this setting: dose: 120.0 mg/kg/injection, schedule: Q01DX005 (ip), vehicle: saline with Tween-80.
The mark [3] stands for this setting: dose: 100.0 mg/kg/injection, schedule: Q01DX001 (ip), vehicle: saline with Tween-80.
Where [4] appears, read: dose: 60.0 mg/kg/injection, schedule: Q01DX005 (ip), vehicle: Klucel (hydroxypropylcellulose) (HPC).
Where [5] appears, read: dose: 120.0 mg/kg/injection, schedule: Q01DX005 (ip), vehicle: Klucel (hydroxypropylcellulose) (HPC).
[6] abbreviates: dose: 240.0 mg/kg/injection, schedule: Q01DX005 (ip), vehicle: Klucel (hydroxypropylcellulose) (HPC).
Setting [7] is: dose: 50.0 mg/kg/injection, schedule: Q01DX009 (ip), vehicle: suspension in saline.
Setting [8] is: dose: 100.0 mg/kg/injection, schedule: Q01DX009 (ip), vehicle: suspension in saline.
Where [9] appears, read: dose: 200.0 mg/kg/injection, schedule: Q01DX009 (ip), vehicle: suspension in saline.

“And” between values parts separate entries of the source, which are not always exact repeats. Equal values may be shown once. Toxic doses and inconclusive results are not listed.

Regarding `CC(=O)Nc1ccc2nc3ccc(NC(C)=O)cc3[n+](-c3ccccc3)c2c1`, the T/C is 177 % of control (dose: 31.3 mg/kg/injection, schedule: Q01DX010 (ip), vehicle: saline); 204 % of control (dose: 62.5 mg/kg/injection, schedule: Q01DX010 (ip), vehicle: saline); 200 % of control (dose: 125.0 mg/kg/injection, schedule: Q01DX010 (ip), vehicle: saline).
Turning to `CC(=O)OCC(=O)[C@@]1(O)CC[C@H]2[C@@H]3C[C@H](C)C4=CC(=O)C=C[C@]4(C)[C@H]3[C@@H](O)C[C@@]21C`, the T/C is 118 % of control (dose: 100.0 mg/kg/injection, schedule: Q01DX009 (ip), vehicle: saline with Tween-80); 104 % of control (dose: 200.0 mg/kg/injection, schedule: Q01DX009 (ip), vehicle: saline with Tween-80); 100 % of control (dose: 400.0 mg/kg/injection, schedule: Q01DX009 (ip), vehicle: saline with Tween-80).
For the compound `BrC1C2CCC3OC3C12` (centres undefined), the T/C under setting [1] is 104 % of control and the T/C under setting [2] is 103 % of control.
Turning to `CCc1ccc(/C=C/C(=O)C(C)CN(C)C)cc1` (centres undefined), the T/C was 105 % of control (dose: 60.0 mg/kg/injection, schedule: Q01DX005 (ip), vehicle: saline) and 118 % of control (dose: 120.0 mg/kg/injection, schedule: Q01DX005 (ip), vehicle: saline).
For `Cc1cc(CCN)c(C)c2c1oc1ccccc12`, the T/C (dose: 25.0 mg/kg/injection, schedule: Q04DX003 (ip), vehicle: Klucel (hydroxypropylcellulose) (HPC)) was 103 % of control; the T/C (dose: 50.0 mg/kg/injection, schedule: Q04DX003 (ip), vehicle: Klucel (hydroxypropylcellulose) (HPC)) was 99 % of control; the T/C (dose: 100.0 mg/kg/injection, schedule: Q04DX003 (ip), vehicle: Klucel (hydroxypropylcellulose) (HPC)) is 100 % of control; the T/C (dose: 200.0 mg/kg/injection, schedule: Q04DX003 (ip), vehicle: Klucel (hydroxypropylcellulose) (HPC)) is 105 % of control.
`O=P(c1ccccc1)(c1ccccc1)c1ccccc1.O=P(c1ccccc1)(c1ccccc1)c1ccccc1.O=P(c1ccccc1)(c1ccccc1)c1ccccc1.O=P(c1ccccc1)(c1ccccc1)c1ccccc1.[O-][Cl+3]([O-])([O-])O.[Zn+2]`: the T/C reads like this: (dose: 50.0 mg/kg/injection, schedule: Q01DX001 (ip), vehicle: saline with Tween-80) 104 % of control; under setting [3], 103 % of control and 90 % of control.
On to `CCCCCCCC(=O)NN(Cn1c(=S)sc2ccccc21)Cn1c(=S)sc2ccccc21`, for which the T/C is, setting by setting: (dose: 50.0 mg/kg/injection, schedule: Q01DX005 (ip), vehicle: Klucel (hydroxypropylcellulose) (HPC)) 96 % of control; (dose: 100.0 mg/kg/injection, schedule: Q01DX005 (ip), vehicle: Klucel (hydroxypropylcellulose) (HPC)) 88 % of control; (dose: 200.0 mg/kg/injection, schedule: Q01DX005 (ip), vehicle: Klucel (hydroxypropylcellulose) (HPC)) 88 % of control.
For `CCCCCC(C[N+](C)(C)C)C(=O)/C=C/c1ccc(Cl)c(Cl)c1` (centres undefined), the T/C is, setting by setting: (dose: 3.12 mg/kg/injection, schedule: Q01DX009 (ip), vehicle: saline with Tween-80) 105 % of control; (dose: 6.25 mg/kg/injection, schedule: Q01DX009 (ip), vehicle: saline with Tween-80) 120 % of control; (dose: 6.25 mg/kg/injection, schedule: Q01DX009 (ip), vehicle: saline) 114 % of control; (dose: 12.5 mg/kg/injection, schedule: Q01DX009 (ip), vehicle: saline with Tween-80) 101 % of control; (dose: 12.5 mg/kg/injection, schedule: Q01DX009 (ip), vehicle: saline) 114 % of control and 124 % of control; (dose: 25.0 mg/kg/injection, schedule: Q01DX009 (ip), vehicle: saline with Tween-80) 111 % of control. Further, the T/C (dose: 25.0 mg/kg/injection, schedule: Q01DX009 (ip), vehicle: saline) is 110 % of control.
Turning to `O=c1c(O)c(-c2ccc(O)c(O)c2)oc2cc(O)cc(O)c12`, the T/C is 95 % of control (dose: 12.5 mg/kg/injection, schedule: Q03HX008 (ip), vehicle: saline with Tween-80); 91 % of control (dose: 25.0 mg/kg/injection, schedule: Q03HX008 (ip), vehicle: saline with Tween-80); 100 % of control (dose: 40.0 mg/kg/injection, schedule: Q01DX009 (ip), vehicle: saline with Tween-80); 93 % of control (dose: 50.0 mg/kg/injection, schedule: Q03HX008 (ip), vehicle: saline with Tween-80); 100 % of control (dose: 80.0 mg/kg/injection, schedule: Q01DX009 (ip), vehicle: saline with Tween-80); 108 % of control under setting [3]. The T/C (dose: 100.0 mg/kg/injection, schedule: Q03HX008 (ip), vehicle: saline with Tween-80) was 99 % of control; the T/C (dose: 100.0 mg/kg/injection, schedule: Q04DX003 (ip), vehicle: saline with Tween-80) is 95 % of control; the T/C (dose: 200.0 mg/kg/injection, schedule: Q01DX001 (ip), vehicle: saline with Tween-80) is 98 % of control; the T/C (dose: 200.0 mg/kg/injection, schedule: Q03HX008 (ip), vehicle: saline with Tween-80) is 103 % of control; the T/C (dose: 200.0 mg/kg/injection, schedule: Q04DX003 (ip), vehicle: saline with Tween-80) is 109 % of control; the T/C (dose: 400.0 mg/kg/injection, schedule: Q01DX001 (ip), vehicle: saline with Tween-80) was 104 % of control. The T/C reads like this: (dose: 400.0 mg/kg/injection, schedule: Q04DX003 (ip), vehicle: saline with Tween-80) 104 % of control; (dose: 800.0 mg/kg/injection, schedule: Q01DX001 (ip), vehicle: saline with Tween-80) 108 % of control.
As for `O=c1[nH]c2cc(Cl)ccc2nc1/C=C(O)/C=C/c1ccccc1`, the T/C runs as follows: under setting [1], 98 % of control and 89 % of control; under setting [2], 95 % of control; (dose: 240.0 mg/kg/injection, schedule: Q01DX005 (ip), vehicle: saline with Tween-80) 89 % of control and 91 % of control.
As to `CC1CCN(C(=O)Nc2c(Cl)cccc2Cl)CC1`, the T/C runs as follows: under setting [4], 99 % of control; under setting [5], 101 % of control; under setting [6], 94 % of control.
With `CNC(=O)Sc1ccc(Cl)cc1`, the T/C under setting [7] is 102 % of control, the T/C under setting [8] is 105 % of control and the T/C under setting [9] was 113 % of control.
In the case of `CCN1CC2(C)CCC(O)C34C2C(OC)C(O)(C13)C1(O)CC(OC)C2CC4(O)C1C2OC(=O)c1ccccc1` (centres undefined), the T/C (dose: 1.0 mg/kg/injection, schedule: Q01DX005 (ip), vehicle: saline + alcohol) is 102 % of control; the T/C (dose: 2.0 mg/kg/injection, schedule: Q01DX005 (ip), vehicle: saline + alcohol) was 106 % of control; the T/C (dose: 4.0 mg/kg/injection, schedule: Q01DX005 (ip), vehicle: saline + alcohol) is 108 % of control; the T/C (dose: 8.0 mg/kg/injection, schedule: Q01DX005 (ip), vehicle: saline + alcohol) is 100 % of control.
Consider `Brc1ccc2c(ccc3c2nnc2ncnn23)c1`, for which the T/C is 102 % of control under setting [4], 93 % of control under setting [5] and 86 % of control under setting [6].
`COc1ccc(CCN2C(=O)C(=O)N(c3cccc(Cl)c3)C2=O)cc1OC`: the T/C by setting is: (dose: 100.0 mg/kg/injection, schedule: Q01DX009 (ip), vehicle: Klucel (hydroxypropylcellulose) (HPC)) 86 % of control; (dose: 200.0 mg/kg/injection, schedule: Q01DX009 (ip), vehicle: Klucel (hydroxypropylcellulose) (HPC)) 92 % of control.
For `CCN(Cc1ccc(CN(CC)C(=O)c2c(-c3ccccc3)noc2C)cc1)C(=O)c1c(-c2ccccc2)noc1C`, the T/C runs as follows: under setting [7], 90 % of control; under setting [8], 92 % of control; under setting [9], 86 % of control and 94 % of control.
Take `O=c1nc(-c2ccccc2)cc(CCc2ccccc2)[nH]1`: the T/C runs as follows: (dose: 50.0 mg/kg/injection, schedule: Q01DX005 (ip), vehicle: saline with Tween-80) 90 % of control; (dose: 100.0 mg/kg/injection, schedule: Q01DX005 (ip), vehicle: saline with Tween-80) 89 % of control; (dose: 200.0 mg/kg/injection, schedule: Q01DX005 (ip), vehicle: saline with Tween-80) 102 % of control.
Regarding `C[C@H](N)[C@H](O)c1cccc(O)c1`, the T/C reads like this: (dose: 1.5 mg/kg/injection, schedule: Q01DX005 (ip), vehicle: saline) 103 % of control; (dose: 3.0 mg/kg/injection, schedule: Q01DX005 (ip), vehicle: saline) 99 % of control; (dose: 6.0 mg/kg/injection, schedule: Q01DX005 (ip), vehicle: saline) 110 % of control; (dose: 6.25 mg/kg/injection, schedule: Q01DX005 (ip), vehicle: saline) 115 % of control; (dose: 25.0 mg/kg/injection, schedule: Q01DX005 (ip), vehicle: saline) 100 % of control.
